From ChEMBL document CHEMBL5550157, “Synthesis and biological evaluation of orally active anti-Trypanosoma agents” (Bioorg Med Chem, 2024)

Experiments:
[1] = Selectivity index, ratio of IC50 for mouse RAW264.7 cells to IC50 for antitrypanosomal activity against bloodstream Trypanosoma brucei Lister 427; assay type: toxicity; conditions: read-out: Ratio IC50
[2] = Cytotoxicity against mouse RAW264.7 cells assessed as reduction in cell viability after 48 hrs by MTT assay; assay type: toxicity, cell-based
[3] = Selectivity index, ratio of IC50 for HEK293 cells to IC50 for antitrypanosomal activity against bloodstream Trypanosoma brucei Lister 427; assay type: toxicity; conditions: human, read-out: Ratio IC50
[4] = system: Trypanosoma brucei; assay: Antitrypanosomal activity against bloodstream Trypanosoma brucei Lister 427 assessed as reduction in parasite viability incubated for 48 hrs by MTS assay; assay type: functional, organism-based; conditions: Lister 427, 48 h
[5] = Cytotoxicity against HEK293 cells assessed as reduction in cell viability after 48 hrs by MTT assay; assay type: toxicity, cell-based; conditions: human
[6] = system: Trypanosoma brucei; assay: Antitrypanosomal activity against Trypanosoma brucei infected in CD1 mouse assessed as reduction in parasite number at 50 mg/kg/day, po administered for 3 days and measured on day 5 by hemocytometer analysis (reference value: 40 10^6/ml; assay type: functional; conditions: time 5 day
[7] = Acute toxicity in CD1 mouse assessed as change in body weight at 50 mg/kg, po; assay type: organism-based; conditions: in vivo

SMILES	IC50 [4] [µM]	selectivity ratio [1]	IC50 at 48 h [2] [µM]	selectivity ratio [3]	IC50 at 48 h [5] [µM]	Activity [6]	Activity [7]
COc1cc(NC(=O)c2cccc(I)c2)ccc1S(N)(=O)=O	19.4	> 5.16	> 100	2.53	48.9		
COc1cc(NC(=O)c2cccc(Br)c2)ccc1S(N)(=O)=O	13.3	1.57	20.9	3.66	48.6		
COc1cc(NC(=O)c2cc(Cl)cc(Cl)c2)ccc1S(N)(=O)=O	> 100	< 0.81	81	< 0.98	98		
COc1cc(NC(=O)c2ccc3ccccc3c2)ccc1S(N)(=O)=O	1	18.1	18.1	17.9	18	10 10^6/ml	Non-Toxic
COc1cc(NC(=O)c2ccccc2[N+](=O)[O-])ccc1S(N)(=O)=O	> 100		> 100		> 100		
COc1cc(NC(=O)c2ccc3c(c2)OCO3)ccc1S(N)(=O)=O	10.9	4.41	48.1	0.81	8.8		
CCc1ccc(C(=O)Nc2ccc(S(N)(=O)=O)c(OC)c2)cc1	37.2	0.64	23.9	0.15	5.69		
COc1cc(NC(=O)c2ccc(C#N)cc2)ccc1S(N)(=O)=O	4.23	> 26.5	> 100	> 26.5	> 100		
COc1cc(NC(=O)c2cc(OC)c(OC)c(OC)c2)ccc1S(N)(=O)=O	92.1	0.38	34.6	0.36	32.9		
COc1cc(NC(=O)c2cccc(C#N)c2)ccc1S(N)(=O)=O	20.8	1.68	35	> 4	> 100		
COc1cc(NC(=O)c2ccc(Br)cc2)ccc1S(N)(=O)=O	3.26	12.1	48.3	21.7	86.8		
COc1cc(NC(=O)c2ccc(SC)cc2)ccc1S(N)(=O)=O	> 100	< 0.2	19.6		> 100		
COc1cc(NC(=O)c2ccccn2)ccc1S(N)(=O)=O	> 100		> 100		> 100		
COc1cc(NC(=O)c2ccc(C)c([N+](=O)[O-])c2)ccc1S(N)(=O)=O	7.76		53.1	> 33.3	> 100		
COc1cc(NC(=O)c2ccc(N(C)C)cc2)ccc1S(N)(=O)=O	> 100		> 100		> 100		
CCOc1ccc(C(=O)Nc2ccc(S(N)(=O)=O)c(OC)c2)cc1	2.68	> 37.3	> 100	> 37.3	> 100		
COc1cccc(C(=O)Nc2ccc(S(N)(=O)=O)c(OC)c2)c1	2.99	38	113	> 33.5	> 100		
COc1cc(NC(=O)c2ccco2)ccc1S(N)(=O)=O	9.79	> 10.2	> 100	> 10.2	> 100		
COc1cc(NC(=O)COCC(=O)Nc2ccc(S(N)(=O)=O)c(OC)c2)ccc1S(N)(=O)=O	85.2	0.95	81	1.15	98		
COc1cc(NC(=O)c2ccc([N+](=O)[O-])cc2)ccc1S(N)(=O)=O	3.29	176	578	> 30.4	> 100		
COc1cc(NC(=O)c2ccc(Cl)c([N+](=O)[O-])c2)ccc1S(N)(=O)=O	15.2	4.77	72.7	1.03	15.7		

Further lines, with some results ahead:

IC50 [4] [µM]	SMILES	selectivity ratio [1]	IC50 at 48 h [2] [µM]	selectivity ratio [3]	IC50 at 48 h [5] [µM]	Activity [6]	Activity [7]
38.6	COc1cc(NC(=O)c2ccc(Cl)c(Cl)c2)ccc1S(N)(=O)=O	0.62	23.8	0.58	22.4		
2.73	COc1cc(NC(=O)c2cccc(Cl)c2)ccc1S(N)(=O)=O	33.5	91.5	> 36.6	> 100		
46.6	COc1cc(NC(=O)c2ccc(Cl)cc2)ccc1S(N)(=O)=O	0.94	43.9	> 2.14	> 100		
23.9	COc1cc(NC(=O)c2cc(C(F)(F)F)cc(C(F)(F)F)c2)ccc1S(N)(=O)=O	1.94	46.3	3.11	74.3		
31	COc1cc(NC(=O)c2cccc(C)c2)ccc1S(N)(=O)=O	> 3.22	> 100	> 3.22	> 100		
36.3	COc1cc(NC(=O)c2ccc(OC(F)(F)F)cc2)ccc1S(N)(=O)=O	0.93	33.8	0.99	35.8		
81.4	COc1cc(NC(=O)c2ccc(C(F)(F)F)cc2C(F)(F)F)ccc1S(N)(=O)=O	0.73	59.1	> 1.22	> 100		
70.4	COc1cc(NC(=O)c2ccc(C)cc2)ccc1S(N)(=O)=O	0.76	53.2	0.24	17.2		
35.9	COc1cc(NC(=O)c2cccc(C(F)(F)F)c2)ccc1S(N)(=O)=O	2.13	76.7	> 2.78	> 100		
